Data on 6 molecules can be found in ChEMBL document CHEMBL1143664, “New antitumoral acetogenin 'Guanacone type' derivatives: isolation and bioactivity. Molecular dynamics simulation of diacetyl-guanacone” (Bioorg Med Chem, 2007).

pEC50, pIC50: −log10 of the molar value.

In one experiment the test system is A549. The experiment can be described thus: Antitumor activity against human A549 cells after 24 hrs by MTT assay. Type of experiment: functional. The settings on record: A549, 24 h, read-out: ED50 (the source's name). (Formazan colour is commonly taken as a measure of viable cells.)
The nature of experiment [1]: Inhibition of NADH-ubiquinone oxidoreductase assessed by NADH oxidase activity in beef heart submitochondrial particles. The arrangement: species or system Bos taurus.
The nature of experiment [2]: Antitumor activity against human MES-SA cells after 24 hrs by MTT assay. Type of experiment: functional. Particulars: read-out: ED50 (the source's name).
The next experiment relates to HepG2. The experiment can be described thus: Antitumor activity against human HepG2 cells after 24 hrs by MTT assay. Type of experiment: functional. The settings on record: HepG2, 24 h, read-out: ED50 (the source's name).
The next experiment relates to HT-29. The experiment can be described thus: Antitumor activity against human HT29 cells after 24 hrs by MTT assay. Particulars: HT-29, 24 h, read-out: ED50 (the source's name). Type of experiment: functional.
The nature of experiment [3]: Antitumor activity against doxorubucin-resistant human MES-SA/Dx5 cells by MTT assay after 24 hrs. Type of experiment: functional. Particulars: MES-SA/Dx5, 24 h, read-out: ED50 (the source's name).
For the next experiment, the system named is MCF7. The experiment can be described thus: Antitumor activity against human MCF7 cells after 24 hrs by MTT assay. Type of experiment: functional. The settings on record: MCF7, 24 h, read-out: ED50 (the source's name).

As for `CCCCCCCCCC[C@H](OC(C)=O)[C@H]1CC[C@H]([C@H]2CC[C@H]([C@H](O)CCCCC(=O)CCCCCCCC3=C[C@H](C)OC3=O)O2)O1`, the pEC50 in the experiment with A549 is 3.72; in experiment [2] it was 4.37; with HepG2, 4.74; with HT-29, 3.81; in experiment [3] it was 4.08; in the experiment on MCF7, 4.30. Moreover, the pIC50 in experiment [1] was 8.47.

For `CCCCCCCCCC[C@H](O)[C@H]1CC[C@H]([C@H]2CC[C@H]([C@@H](CCCCC(=O)CCCCCCCC3=C[C@H](C)OC3=O)OC(C)=O)O2)O1`, the pEC50 with A549 was 4.00; in experiment [2], 4.12; with HepG2, 4.29; in the experiment on HT-29, 3.77; in experiment [3] it was 4.01; with MCF7 it was 4.18. Also, the pIC50 in experiment [1] was 8.55.

For the molecule `CCCCCCCCCC[C@H](OC(C)=O)[C@H]1CC[C@H]([C@H]2CC[C@H]([C@@H](CCCCC(=O)CCCCCCCC3=C[C@H](C)OC3=O)OC(C)=O)O2)O1`, the pEC50 with A549 was 4.22; in experiment [2], 4.55; in the experiment on HepG2 it was 5.05; in the experiment with HT-29, 3.71; in experiment [3], 4.25; in the experiment with MCF7, 4.54. In experiment [1], this molecule gave a pIC50 of 9.40.

As for `COc1cccc2c1C(=O)c1c(O)c3c(c(O)c1C2=O)C[C@@](O)(C(=O)CO)C[C@@H]3O[C@H]1C[C@H](N)[C@H](O)[C@H](C)O1` [DOXORUBICIN], the pEC50 is 3.82 in the experiment on A549; 3.76 in experiment [2]; 3.99 with HepG2; 3.56 in the experiment with HT-29; under 3.30 in experiment [3]; 5.10 in the experiment with MCF7.

Turning to `CCCCCCCCCC[C@H](O)[C@H]1CC[C@H]([C@H]2CC[C@H]([C@H](O)CCCCC(=O)CCCCCCCC3=C[C@H](C)OC3=O)O2)O1` [GUANACONE], the pEC50 was 3.83 in the experiment on A549; 4.66 in experiment [2]; 4.96 in the experiment with HepG2; 4.15 in the experiment on HT-29; 4.28 in experiment [3]; 4.41 with MCF7. In experiment [1], this molecule showed a pIC50 of 8.92.

On to `C=C(C)[C@H]1Cc2c(ccc3c2O[C@@H]2COc4cc(OC)c(OC)cc4[C@@H]2C3=O)O1` [ROTENONE], for which the pEC50 in the experiment on A549 is 4.59; in experiment [2], 3.83; in the experiment on HepG2, 4.82; in the experiment with HT-29 it was 3.69; in experiment [3] it was 3.67; with MCF7, 3.79. Further, in experiment [1], the pIC50 was 8.29.

Broadly, the pIC50 is −log10 of the IC50, conventionally taken in molar units. A high value points to a small IC50.
